{"source": "paper PMC10363981", "about": "“Optimizing the enzymatic release of MMAE from isoDGR-based small molecule drug conjugate by incorporation of a GPLG-PABC enzymatically cleavable linker” (Frontiers in Pharmacology, 2023)", "key": {"[1]": {"tested_on": "SK-OV-3 human ovarian cancer cells", "experiment": "In vitro antiproliferative activity, \"kiss-and-run\" washout experiment (30 min + washout + up to 72 h)", "format": "cell-based", "method": "(§1) U87MG human malignant glioma, SK-MEL-28 human melanoma, SK-OV-3 human ovarian cancer, and A549 human lung cancer cell lines were purchased from ATCC. The cells were cultured in Dulbecco’s Modified Eagle’s Medium (DMEM; Biosera, Nuaille, France), supplemented with 10% heat-inactivated Fetal Bovine Serum (FBS; Biosera), and with 1% Penicillin/Streptomycin (Biosera). Cells were cultured in sterile T75 flasks with ventilation cap (Sarstedt, Nümbrecht, Germany) at 37 °C in a humidified atmosphere with 5% CO2 in ESCO CelCulture Incubator (ESCO, Friedberg, Germany). Manipulations with the cells were performed in biosafety cabinet (laminar) ESCO Sentinel Gold class II model AC2-4E8 (ESCO).\n(§2) After standard trypsinization and harvesting cells by trypsin (Biosera), ethylenediaminetetraacetic acid (EDTA; Biosera) and PBS solution, 6×10^3 cells per well were seeded in serum containing (10%) growth medium to 96-well plates with flat bottom (Eppendorf, Hamburg, Germany), in a 100 μL volume per well, and incubated at 37°C.\n(§3) In the wash out experiment, cells were incubated with the compounds (5% serum final) for 30 min, then they were washed out, and additionally incubated in growth medium (5% serum final) up to 72 h. The control wells were treated only with serum free medium (5% serum final).\n(§4) For the evaluation of the in vitro antiproliferative activity of compounds, the cell viability was determined by MTT assay (3-(4,5-dimethylthiazol-2-yl)-2,5-diphenyl-tetrazolium bromide) obtained from Duchefa Biochemie (Haarlem, Netherlands).\n(§5) 22 µL of MTT solution (5 mg/mL in PBS, 0.5 mg/mL final) was added to each well and after 2 h incubation at 37°C, the supernatant was removed. […] Average background absorbance (DMSO-Ethanol) was subtracted from absorbance values of control and treated wells, and cell viability was determined relative to untreated (control) wells where cell viability was arbitrarily set to 100%. […] The experiments were done in triplicate and each experiment was repeated three times.\n(§6) Recently, a new protocol for evaluating the antiproliferative activity and the targeting ability of integrin-ligand based conjugates was developed by the group of Prof. […] In this procedure, which we named “kiss-and-run” experiment, after very short initial contact times (15–30 min) of the toxin with the cells in vitro, the solution is drained, and cells are resuspended in the culture medium for a 72 h incubation. This protocol is aimed at simulating the rapid clearance of the drugs that occurs in vivo in the extracellular tumor environment, thus highlighting the ability of the conjugate to bind the integrin receptor on the cell surface."}, "[2]": {"tested_on": "A549 human lung cancer cells", "experiment": "In vitro antiproliferative activity, \"kiss-and-run\" washout experiment (30 min + washout + up to 72 h)", "format": "cell-based", "method": "as §1, §2, §3, §4, §5, §6"}, "[3]": {"tested_on": "SK-MEL-28 human melanoma cells", "experiment": "In vitro antiproliferative activity, \"kiss-and-run\" washout experiment (30 min + washout + up to 72 h)", "format": "cell-based", "method": "as §1, §2, §3, §4, §5, §6"}, "[4]": {"tested_on": "U87MG human malignant glioma cells", "experiment": "In vitro antiproliferative activity, \"kiss-and-run\" washout experiment (30 min + washout + up to 72 h)", "format": "cell-based", "method": "as §1, §2, §3, §4, §5, §6"}, "[5]": {"experiment": "Enzymatic cleavage assay with lysosomal homogenate", "format": "in vitro ADME", "conditions": "rat liver lysosomal homogenate, conjugate:lysosomal protein 1:10 (w/w), 0.2 M NaOAc pH 5.05, 37 °C, UPLC-HRMS", "method": "The enzymatically cleavage test was performed by incubating the conjugate 2 with rat liver lysosomal homogenate and analyzed by LC–MS. In particular, the conjugate 2 (2.35 μg/μL in DMSO, 5 μL) was diluted with 0.2 M NaOAc solution (pH 5.05, 495 μL) to 0.024 μg/μL. The lysosomal homogenate was prepared from rat liver ([Gomena et al., 2023]), and contained proteins in 71.76 μg/μL concentration. 8.6 μL of this lysosomal homogenate was diluted with 66.4 μL 0.2 M NaOAc solution (pH 5.05), to have a protein concentration of 8.27 μg/μL. To start the assay, 15 μL lysosome homogenate (8.27 μg/μL) was added to 500 μL conjugate solution (0.025 μg/μL), to have a conjugate: lysosomal protein = 1:10 (w/w) ratio. Furthermore, a control reaction mixture was prepared, containing the conjugate (2.35 μg/μL in DMSO, 5 μL) and 510 μL of 0.2 M NaOAc solution (pH 5.05). The samples were stirred at 300 rpm, 37°C and 50 µL aliquots were taken out at 0 min, 15 min, 30 min, 1 h, 2 h, 6 h, 24 h, and 72 h. The enzymatic activity was quenched by adding 5 μL formic acid (FA) to the samples. After this procedure, samples were frozen immediately at −25°C. Control samples were collected at 0 min, 1 h, 6 h, 24 h and 72 h. The composition of the samples was determined by HPLC-MS. […] LC-MS data were analyzed by XcaliburTM software (Thermo Fisher Scientific)."}, "[6]": {"conditions": "MTT, 30 min treatment, washout, further incubation up to 72 h, 5% serum final"}, "[7]": {"conditions": "ratio of IC50 of 2 vs MMAE, 30 min + washout + up to 72 h"}}}
{"smiles": "CC[C@H](C)[C@@H]([C@@H](CC(=O)N1CCC[C@H]1[C@H](OC)[C@@H](C)C(=O)N[C@H](C)[C@@H](O)c1ccccc1)OC)N(C)C(=O)[C@@H](NC(=O)[C@H](C(C)C)N(C)C(=O)OCc1ccc(NC(=O)CNC(=O)[C@H](CC(C)C)NC(=O)[C@@H]2CCCN2C(=O)CNC(=O)CCc2cn(CCOCCOCCOCCOCC(=O)NCc3ccc(CN4C(=O)[C@H]5CC(=O)N[C@H](C(=O)O)CC(=O)NCC(=O)N[C@@H](CCCNC(=N)N)C(=O)NC[C@H]4C(=O)N5)cc3)nn2)cc1)C(C)C", "note": "[compound 2, cyclo[DKP-isoDGR]-PEG4-GPLG-PABC-MMAE]", "values": [{"measurement": "IC50", "setting": "[1]; [6]", "result": "198 ± 13.7", "unit": "nM"}, {"measurement": "RP [SMDC (2)/MMAE] SK-OV-3", "setting": "[1]; [7]", "result": 0.97}, {"measurement": "IC50", "setting": "[2]; MTT, 30 min treatment, washout, further incubation up to 72 h, 5% serum final, αVβ3 low expressing line", "result": "1240 ± 85.2", "unit": "nM"}, {"measurement": "RP [SMDC (2)/MMAE] A549", "setting": "[2]; [7]", "result": 4.67}, {"measurement": "IC50", "setting": "[3]; [6]", "result": "938 ± 112", "unit": "nM"}, {"measurement": "RP [SMDC (2)/MMAE] SK-MEL-28", "setting": "[3]; [7]", "result": 0.67}, {"measurement": "IC50", "setting": "[4]; [6]", "result": "683 ± 37.1", "unit": "nM"}, {"measurement": "RP [SMDC (2)/MMAE] U87MG", "setting": "[4]; [7]", "result": 0.32}, {"measurement": "cleavage of the conjugate in the presence of lysosomal enzymes", "setting": "[5]", "result": "rapidly cleaved"}, {"measurement": "incubation time after which released free MMAE is detectable", "setting": "[5]", "result": "≤ 15", "unit": "min"}]}
